Measured values: patent publication US8623911B2, “Boron-containing small molecules as anti-protozoal agent” (Anacor Pharmaceuticals, Inc., priority 2010, dated 2014)
Read-outs that look alike come from different tables or passages of the source.

How the values were obtained:
[1] = Pharmacokinetic studies in mice (plasma and brain, IV and oral gavage); type: in vivo, male CD-1 mice; details: for AUC(0-t) / clearance / AUC(0-inf) / Vd / CL/F / half-life: male, CD-1, mouse; for AUC(0-t): read-out: Exposure/trapezoid AUC0-last; for clearance: read-out: Clearance Cl (converted); for AUC(0-inf): read-out: Exposure/trapezoid AUC0-inf; for Vd: read-out: Vdss; for CL/F: read-out: Oral Clearance Cl/F (converted); for half-life: read-out: t½ (converted); for Cmax: mouse, male CD-1 mice
Description: Male CD-1 mice weighing approximately 20 to 30 g received the test article M1 by either intravenous (IV) or oral gavage (OG) routes. Animals in the IV group (11 animals, 1 per time point) received a single bolus injection at a nominal dose level of 2 mg/kg of the test article. Animals receiving oral doses were administered the test article as a single OG dose (10 animals per dose level, 1 per time point) at nominal dose levels of 25 and 50 mg/kg. IV doses were administered as a solution in 5% (w/v) dextrose in sterile water for injection. OG doses at 25 and 50 mg/kg were administered as suspensions in 5% (w/v) dextrose in sterile water for injection and as in situ sodium salts in 5% (m/v) dextrose: 2% (v/v) ethanol in DWI, respectively. All dose solutions were delivered at 4 mL/kg. Animals receiving the IV dose at 2 mg/kg or the OG dose at 25 mg/kg were not fasted. Animals receiving the OG dose at 50 mg/kg were fasted for 4 hours before dosing and for 1 hour after dosing. Blood and brain tissue were collected from 1 animal/timepoint/group at 0.17, 0.5, 1, 2, 3, 4, 6, 8, 12, 18 and 24 hr after IV dosing, and at 0.5, 1, 2, 3, 4, 6, 8, 12, 18 and 24 hr after OG dosing. Whole blood samples were processed completely to plasma following collection. Plasma and brain tissue were submitted to bioanalysis to determine pharmacokinetic parameters and test article CNS disposition. Plasma and brain tissue from non-dosed animals were collected to serve as surrogate pre-dose samples. Bioanalysis for test article in plasma and brain tissue was performed by HPLC with tandem mass spectrometry (LC-MSMS). Plasma samples were treated with 4 volumes of 0.5% formic acid in methanol to precipitate plasma proteins. Treated samples were centrifuged and supernatants removed for analysis. Brain tissues were massed and homogenized mechanically in the presence of 1 volume of phosphate-buffered saline (PBS). The resulting tissue homogenates were then diluted with a further volume of PBS, and then treated in the same manner as plasma. Extracted samples were assayed for test article by means of LC-MSMS employing reversed-phase chromatography coupled to a triple quadrupole mass spectrometer employing electrospray ionization in the positive ion mode. The analytical column was a Phenomenex Luna 3μ C8 50×2 mm, with an online sample purification step performed on a Phenomenex Synergi 4μ Polar RP 50×2 mm column. Test articles were eluted using a binary mobile phase gradient comprising 5 mM Ammonium Acetate: 0.1% formic acid in either MeOH or H2O. Non-compartmental analysis of plasma test article concentration versus time was performed in Microsoft Excel to generate pharmacokinetic parameters including: area under the curve (AUC), clearance (as Cl or Cl/F), volume of distribution (Vdss), half-life (t½), and bioavailability (F).

[2] = tested on: MDCK-MDR1 cells; experiment: in vitro; type: in vitro ADME, canine; details: 3 μM test compound
Description: (§1) MDCK-MDR1 cells (Madin-Darby canine kidney cells transfected with the human MDR1 gene) (Dr. Piet Borst, NKI-AVL, Amsterdam, The Netherlands) were seeded at 300,000 cells per well onto microporous, polycarbonate membranes in 12 well Costar Transwell® plates (Corning, Corning, N.Y.). The medium was removed and replaced with fresh cell culture medium approximately 24 hours after plating. Cells attained confluency and were ready for use in the transport assay after 72 hours of incubation.
(§2) A stock solution of each compound was prepared in DMSO at a concentration of 10 mg/mL. Stock solutions were further diluted in DMSO to a concentration of 1 mM for use in the assay. The final assay concentration of test compound in each incubation mixture was 3 μM and the final concentration of DMSO was 0.3%.
(§3) Cell cultures were pre-incubated with Transport Medium (TM), consisting of Hanks Balanced Salt Solution (HBSS), 25 mM glucose, and 25 mM HEPES, with and without the known P-gp inhibitor GF120918 (2 μM final assay concentration), for 30-60 minutes prior to the addition of test and control compounds. Following the pre-incubation period, transepithelial electrical resistance (TEER) measurements were taken on each insert to insure the integrity of the monolayer. The range for TEER values was 45-85Ω·cm^2. Transport medium was removed. Fresh transport media (1.5 mL) with or without GF120918 was added to the basolateral chambers. Solutions of the test compound were diluted into TM and added to the appropriate wells in triplicate (400 μL/well) at a final concentration of 3 μM with and without GF120918. The final concentration of DMSO was 0.3%. Control compounds were tested in triplicate at a final concentration of 3 μM. Cell monolayers were incubated with shaking (160 rpm) at 37° C. with 5% CO2 in a humidified incubator for one hour. Following the incubation, all plates were removed from the incubator. Inserts were removed from the plates and TEER measurements were again taken on each insert prior to removing samples for analysis to ensure no degradation of the tight junctions during the assay. An aliquot was taken from each receiver and diluted 1:3 with organic solvent (methanol) to assess transport of each compound across the monolayer. An aliquot was taken from each donor and diluted 1:2 with organic solvent (methanol) and then again 1:50 with matrix (50% methanol/50% TM) to assess mass balance within the study. All samples were assayed for test compound concentrations by LC-MS/MS using electrospray ionization.

[3] = tested on: P-gp (human MDR1); experiment: in vitro; type: in vitro ADME, canine; details: dog, MDCK-MDR1; 3 μM test compound; without GF120918; read-out: MDCK-MCR1 Papp
Description: as §1, §2, §3

[4] = oral delivery to mice, 25 and 50 mg/kg

Compound: O=C(Nc1ccc2c(c1)B(O)OCC2)c1ccc(F)cc1C(F)(F)F [M1, 4-Fluoro-N-(1-hydroxy-3,4-dihydro-1H-benzo[c][1,2]oxaborinin-7-yl)-2-trifluoromethyl-benzamide]
- period brain concentrations are maintained above the MIC ([1]; OG dosing at 25 mg/kg): approximately 5 hours
- period brain concentrations are maintained above the MIC ([1]; OG dosing at 50 mg/kg): ~10 h
- AUC(0-t) ([1]; brain, IV 2 mg/kg, last = 12 hours): 700 ng·h/mL
- clearance ([1]; brain, IV 2 mg/kg): 42.3 mL/min/kg
- AUC(0-inf) ([1]; brain, IV 2 mg/kg): 890 ng·h/mL
- Vd ([1]; brain, IV 2 mg/kg): 17.1 L/kg
- AUC(0-t) ([1]; brain, oral 25 mg/kg, last = 12 hours): 14300 ng·h/mL
- AUC(0-inf) ([1]; brain, oral 25 mg/kg): 14400 ng·h/mL
- CL/F ([1]; brain, oral 25 mg/kg): 29.2 mL/min/kg
- AUC(0-t) ([1]; brain, oral 50 mg/kg, last = 12 hours): 22900 ng·h/mL
- AUC(0-inf) ([1]; brain, oral 50 mg/kg): 24700 ng·h/mL
- CL/F ([1]; brain, oral 50 mg/kg): 36.5 mL/min/kg
- AUC(0-t) ([1]; plasma, IV 2 mg/kg, last = 24 hours): 1580 ng·h/mL
- clearance ([1]; plasma, IV 2 mg/kg): 27.8 mL/min/kg
- AUC(0-inf) ([1]; plasma, IV 2 mg/kg): 1610 ng·h/mL
- Vd ([1]; plasma, IV 2 mg/kg): 5 L/kg
- half-life ([1]; plasma, IV 2 mg/kg): 6.88 h
- AUC(0-t) ([1]; plasma, oral 25 mg/kg, last = 24 hours): 6390 ng·h/mL
- AUC(0-inf) ([1]; plasma, oral 25 mg/kg): 6460 ng·h/mL
- CL/F ([1]; plasma, oral 25 mg/kg): 64.5 mL/min/kg
- half-life ([1]; plasma, oral 25 mg/kg): 5.29 h
- AUC(0-t) ([1]; plasma, oral 50 mg/kg, last = 24 hours): 81400 ng·h/mL
- AUC(0-inf) ([1]; plasma, oral 50 mg/kg): 83400 ng·h/mL
- CL/F ([1]; plasma, oral 50 mg/kg): 10.2 mL/min/kg
- Cmax ([1]; brain, oral 25 mg/kg): 5840 ng/mL
- Cmax ([1]; brain, oral 50 mg/kg): 4210 ng/mL
- Cmax ([1]; plasma, oral 25 mg/kg): 2230 ng/mL
- Cmax ([1]; plasma, oral 50 mg/kg): 13400 ng/mL
- dose proportionality of brain exposure [1, 4]: approximately proportional
- dose proportionality of plasma exposure [1, 4]: superproportional increase
- period for which brain:plasma ratio is greater than unity ([1]; oral dose of 25 mg/kg): approximately 4 hours
- brain:plasma ratio ([1]; oral dose of 25 mg/kg, for approximately 4 hours following dosing): greater than unity
- F (% of IV) ([1]; plasma, oral 25 mg/kg): 43.2 % of IV
- MDCK-MCR1 AQ [2]: −0.02
- Papp at 1 h, 3 µM [3]: 55.7 ×10⁻⁶ cm/s
